Data: patent publication US8563503B2, “Antibiotic, its nucleotide sequence, methods of construction and uses thereof” (Protein Design Lab. Ltd., priority 2011, dated 2013)
Values after ≈ are worked out from the molar mass of the structure shown. “Also recorded” adds a separate entry of the source.

Assays:
Enterococcus ATCC 700802 [1] = assay: MIC against the infecting strain (Table 2); type: cell-based, Enterococcus faecalis; conditions: ATCC700802
Procedure: (§1) (3) Culture Solution • MH Broth Culture Solution: 25 g was added into […] distilled water, heat to dissolve, subpackaged, autoclaved at 116° C. for 20 minutes, and MH Solid Culture Medium, 36 g was added into 1000 ml distilled water, autoclaved at 116° C. for 20 minutes, used for drug sensitive test of Gram-positive and negative aerobic bacteria. • Blood culture solution for Enterococcus faecalis, which was prepared by adding defibration rabbit blood into the MH culture solution by 5-10% and cultured at 37° C. in 5% CO2 for 24 hours. 2. Experimental Methods (1) The Measurement of Minimum Inhibitory Concentration (MIC) • The Minimum Inhibitory Concentration (MIC) of PMC-SA1 was measured by Agar Doubling Dilution Method. The bacterium was inoculated on the surface of agar plate containing different concentration of drugs by multipoint inoculate instrument (Deneley A400). The bacterial content per point was 10^5 CFU/ml. After incubated at 37° C. for 18-24 hours, the result can be observed. The least concentration of drugs in plate culture solution without bacterium growing was Minimum Inhibitory Concentration (MIC) of the drug to the said bacteria. 3. Results

[2] = tested on: Staphylococcus epidermidis (MRSE); assay: MIC by Agar Doubling Dilution Method, clinical isolates; type: cell-based; conditions: Staphylococcus epidermidis, MRSE
Procedure: as §1

E. coli = assay: as above; type: cell-based; conditions: Escherichia coli
Procedure: as §1

[3] = tested on: Staphylococcus epidermidis (MSSE strain); assay: as above; type: cell-based; conditions: Staphylococcus epidermidis
Procedure: as §1

[4] = tested on: Staphylococcus aureus (MSSA); assay: as above; type: cell-based; conditions: Staphylococcus aureus, MSSA
Procedure: as §1

Baumanii = assay: as above; type: cell-based
Procedure: as §1

[5] = tested on: Staphylococcus aureus (MRSA); assay: as above; type: cell-based; conditions: Staphylococcus aureus, MRSA
Procedure: as §1

[6] = tested on: Staphylococcus aureus MRSA BAA-42; assay: MIC against the infecting strain (Table 2); type: cell-based; conditions: Staphylococcus aureus
Procedure: as §1

[7] = tested on: Staphylococcus aureus ATCC 29213; assay: MIC against the infecting strain (Table 2); type: cell-based; conditions: ATCC29213
Procedure: as §1

E. coli 02-1-65 [8] = assay: MIC against the infecting strain (Table 2); type: cell-based; conditions: Escherichia coli, 02165
Procedure: as §1

[9] = tested on: Staphylococcus aureus MRSA BAA-42; assay: Protection test in vivo (intravenous injection) of infected mice; design: species or system Kungming mice; conditions: Staphylococcus aureus
Procedure: (§2) The drugs used in this embodiment were same with that used in embodiment 4.
(§3) The above drugs were dissolved and diluted by sterilized water, and the injection concentrations of each drug were 10 mg/kg, 5 mg/kg and 2.5 mg/kg.
(§4) After given intraperitoneal injection of fatal dose of above-mentioned bacteria, the mice of each drug experimental group respectively were given once intravenous injection of the drug by 10 mg, 5 mg, 2.5 mg/kg. The results were observed per 24 hours for 7-14 days. The positive result is mice's death.

[10] = tested on: Staphylococcus aureus ATCC 29213; assay: as above; design: species or system Kungming mice; conditions: Staphylococcus aureus, ATCC29213
Procedure: as §2, §3, §4

Enterococcus ATCC 700802 [11] = assay: as above; design: species or system Kungming mice; conditions: Enterococcus, ATCC700802
Procedure: as §2, §3, §4

E. coli 02-1-65 [12] = assay: as above; design: species or system Kungming mice; conditions: Escherichia coli, 02165
Procedure: as §2, §3, §4

Enterococcus = assay: MIC by Agar Doubling Dilution Method, clinical isolates; type: cell-based, Enterococcus faecalis; conditions: Enterococcus
Procedure: as §1

[13] = tested on: methicillin-resistant Staphylococcus aureus ATCC BAA-42; assay: Bacteria growth curve (A595 nm), comparison of the novel antibiotics; type: cell-based; conditions: drug 5 μg/ml, 37° C., A595 nm per hour
Procedure: The following experiment was set for comparing bacteriostasis effects of 6 kinds of the novel antibiotics. The experimental bacteriaum was United States Standard Strain methicillin-resistant Staphylococcus aureus ATCC BAA-42. 5 microliter of bacteria solution (10^6 CFU/ml level bacterium amount) was added into 10 ml culture solution containing 1% peptone, 1% NaCl, 0.5% yeast extract, 0.5% glucose and 0.1% K2HPO4, total of 8 groups were prepared. The first group as control was added 0.3 M NaCl+50 mM boric acid buffer fluid by the same volume as that of antibiosis polypeptide liquid added in any experimental groups, the second group was added penicillin G sodium by 5 μg/ml, PMC-SA1, PMC-SA2, PMC-SA3, PMC-SA4, PMC-SE and PMC-PA were added in the other experimental groups with preservative fluid being 0.3 M NaCl+50 mM boric acid buffer fluid by 5 ug/ml.
(§5) The solution of above groups was put into 100 ml conical flask, 200 rpm, grew at 37° C. 100 μl was sampled per hour, and added onto 96-pore ELISA plate and measured bacteria grown cloudiness by spectrophotometer (A595 nm) color comparison. The bacteria growth curve was drawn up to compare the bacteriostasis efficacy of antibiosis polypeptide.

[14] = tested on: Staphylococcus epidermidis reference culture No. 26069; assay: Bacteria growth curve (A595 nm cloudiness), Staphylococcus epidermidis; type: cell-based; conditions: drug 2 μg/ml, 37° C., A595 nm per hour
Procedure: The bacterium is Staphylococcus epidermidis reference culture No. 26069, purchased from China Center of Culture Collection (National Institute for the Control of Pharmaceutical and Biological Products). 3 microliter of bacterium solution (10^6 CFU/ml level bacterium amount) was added into 10 ml culture solution containing 1% peptone, 1% NaCl, 0.5% yeast extract, 0.5% glucose and 0.1% K2HPO4. Totally four groups were prepared. The first group as control was added 0.3M NaCl+50 mM boric acid buffer fluid by the same volume with that of antibiosis polypeptide liquid added in any experimental groups, the second group was added penicillin G sodium by 2 μg/ml, PMC-SA1 and PMC-SE was added in the other experimental groups by 2 μg/ml (0.3 M NaCl+50 mM boric acid buffer fluid was preservative fluid).
as §5, with “to measure” for “and measured”, “the novel antibiotics.” for “antibiosis polypeptide.”

[15] = Immunization of mice, valence of mouse sera by indirect ELISA; type: in vivo; conditions: from valence of mouse sera
Procedure: Allosteric peptide of Colicin Ia, i.e. Ia′, PMC-SA1 obtained in embodiment 1, wild-type colicin Ia and the anti-Staphylococcus aureus peptide (ZL01128836.1) which invented by the present inventor were taken respectively to immunize mice. After admixturing with the adjuvant, the above proteins were interaperitonea injected respectively to the mice by 50 μg per mouse for one time of foundational quantity and 50 μg per mouse for one time of additional quantity totally 5 times by two weeks interval. Indirect ELISA detection method was applied to detect the valence of mouse sera (Xiao Yi, et. al., Preparation and preliminary characterization of monoclonal antibodies against Pheromonicin-and-Staphylococcus aureus, Shanxi Medical Journal, 35(1): 6-7, 32 (2006)). The valence of mouse sera which immunized by wild type colicin Ia as well as anti-Staphylococcus aureus polypeptide (ZL01128836.1) was 10^−4 to 10^−5, while the valence of mouse sera which immunized by allosteric peptide of colicin Ia and PMC-SA1 was 10^−2 to 10^−3.

Question: With `CN[C@H](CC(C)C)C(=O)N[C@H]1C(=O)N[C@@H](CC(N)=O)C(=O)N[C@H]2C(=O)N[C@H]3C(=O)N[C@H](C(=O)N[C@H](C(=O)O)c4cc(O)cc(O)c4-c4cc3ccc4O)[C@H](O)c3ccc(c(Cl)c3)Oc3cc2cc(c3O[C@@H]2O[C@H](CO)[C@@H](O)[C@H](O)[C@H]2O[C@H]2C[C@](C)(N)[C@H](O)[C@H](C)O2)Oc2ccc(cc2Cl)[C@H]1O` [Vancomycin] as the molecule, how does the MIC (Enterococcus ATCC 700802 [1]) read?
Answer: > 16 µg/mL

Question: And the MIC50 [2]?
Answer: 0.5 µg/mL (≈ 0.345 µM)

Question: And the MIC90 [2]?
Answer: 1 µg/mL (≈ 0.69 µM)

Question: And the MIC ([2]; read-out: Scope of MIC)?
Answer: 0.25 to 2 µg/mL (≈ 0.173 to 1.38 µM)

Question: And the MIC50 (E. coli)?
Answer: > 128 µg/mL

Question: What about the MIC90 (E. coli) of the same molecule?
Answer: > 128 µg/mL

Question: And the MIC (E. coli; read-out: Scope of MIC)?
Answer: > 128 µg/mL

Question: What about the MIC50 [3] of the same molecule?
Answer: 0.5 µg/mL (≈ 0.345 µM)

Question: What about the MIC90 [3] of the same molecule?
Answer: 0.5 µg/mL (≈ 0.345 µM)

Question: What about the MIC ([3]; read-out: Scope of MIC) of the same molecule?
Answer: 0.06 to 0.5 µg/mL (≈ 0.0414 to 0.345 µM)

Question: What about the MIC50 [4] of the same molecule?
Answer: 0.5 µg/mL (≈ 0.345 µM)

Question: And the MIC90 [4]?
Answer: 1 µg/mL (≈ 0.69 µM)

Question: And the MIC ([4]; read-out: Scope of MIC)?
Answer: 0.03 to 1 µg/mL (≈ 0.0207 to 0.69 µM)

Question: And the MIC50 (Baumanii)?
Answer: > 128 µg/mL

Question: And the MIC90 (Baumanii)?
Answer: > 128 µg/mL

Question: And the MIC50 [5]?
Answer: 0.25 µg/mL (≈ 0.173 µM)

Question: And the MIC90 [5]?
Answer: 1 µg/mL (≈ 0.69 µM)

Question: What about the MIC ([5]; read-out: Scope of MIC) of the same molecule?
Answer: 0.004 to 2 µg/mL (≈ 0.00276 to 1.38 µM)

Question: And the MIC [6]?
Answer: 0.5 µg/mL (≈ 0.345 µM)

Question: And the MIC [7]?
Answer: 0.5 µg/mL (≈ 0.345 µM)

Question: And the MIC (E. coli 02-1-65 [8])?
Answer: 128 µg/mL (≈ 88.3 µM)

Question: And the ED50 [9]?
Answer: 3.54 mg/kg

Question: And the ED50 [10]?
Answer: 2.42 mg/kg

Question: And the ED50 (Enterococcus ATCC 700802 [11])?
Answer: 3.66 mg/kg

Question: What about the ED50 (E. coli 02-1-65 [12]) of the same molecule?
Answer: > 40.1 mg/kg

Question: What about the MIC50 (Enterococcus) of the same molecule?
Answer: 1 µg/mL (≈ 0.69 µM)

Question: And the MIC90 (Enterococcus)?
Answer: 2 µg/mL (≈ 1.38 µM)

Question: And the MIC (Enterococcus; read-out: Scope of MIC)?
Answer: 0.5 to 50 µg/mL (≈ 0.345 to 34.5 µM)

B1: PMC-SE: Staphylococcus epidermidis pheromone linked to C-terminus of allosteric colicin Ia′; SEQ ID NO. 21; plasmid pBHC-SE (protein)
chain: SDPVRITNPAAESLGYDSDGREIMGVDIYLNPPRVDVFKGTPPAWSSFGNKTIWGGNEWVDDSPTRSDIEKRDKEITAYKNTLSAQQKENENKRTEAGKRLSAAIAAREKDENTLKTLRAGNADAADITRQEFRLLQAELREYGFRTEIAGYDALRLHTESRMLFADADSLRISPREARSLIEQAEKRQKDAQNADKKAADMLAEYERRKGILDTRLSELEKNGGAALAVLDAQQARLLGQQTRNDRAISEARNKLSSVTESLNTARNALTRAEQQLTQQKNTPDGKTIVSPEKFPGRSSTNHSIVVSGDPRFAGTIKITTSAVIDNRANLNYLLSHSGLDYKRNILNDRNPVVTEDVEGDKKIYNAEVAEWDKLRQRLLDARNKITSAESAVNSARNNLSARTNEQKHANDALNALLKEKENIRNQLSGINQKIAEEKRKQDELKATKDAINFTTEFLKSVSEKYGAKAEQLAREMAGQAKGKKIRNVEEALKTYEKYRADINKKINAKDRAAIAAALESVKLSDISSNLNRFSRGLGYAGKFTSLADWITEFGKAVRTENWRPLFVKTETIIAGNAATALVALVFSILTGSALGIIGYGLLMAVTGALIDESLVEKANKFWGIDSVCASYF
modifications: The peptide of PMC-SE
notes: Staphylococcus epidermidis pheromone linked to C-terminus of allosteric colicin Ia′; 21; plasmid pBHC-SE
Question: What does the source list for B1?
Answer: bacteriostasis effect on growth of methicillin-resistant Staphylococcus aureus (bacteria growth curve) [13]: less better; growth of Staphylococcus epidermidis (bacteria growth curve) [14]: effectively restrained; also recorded: completely restrained

B2: allosteric peptide of colicin Ia: wild-type Colicin Ia with mutations G11A, H22R, A26G, V31L and H40K; SEQ ID NO: 36 (protein)
chain: SDPVRITNPAAESLGYDSDGREIMGVDIYLNPPRVDVFKGTPPAWSSFGNKTIWGGNEWVDDSPTRSDIEKRDKEITAYKNTLSAQQKENENKRTEAGKRLSAAIAAREKDENTLKTLRAGNADAADITRQEFRLLQAELREYGFRTEIAGYDALRLHTESRMLFADADSLRISPREARSLIEQAEKRQKDAQNADKKAADMLAEYERRKGILDTRLSELEKNGGAALAVLDAQQARLLGQQTRNDRAISEARNKLSSVTESLNTARNALTRAEQQLTQQKNTPDGKTIVSPEKFPGRSSTNHSIVVSGDPRFAGTIKITTSAVIDNRANLNYLLSHSGLDYKRNILNDRNPVVTEDVEGDKKIYNAEVAEWDKLRQRLLDARNKITSAESAVNSARNNLSARTNEQKHANDALNALLKEKENIRNQLSGINQKIAEEKRKQDELKATKDAINFTTEFLKSVSEKYGAKAEQLAREMAGQAKGKKIRNVEEALKTYEKYRADINKKINAKDRAAIAAALESVKLSDISSNLNRFSRGLGYAGKFTSLADWITEFGKAVRTENWRPLFVKTETIIAGNAATALVALVFSILTGSALGIIGYGLLMAVTGALIDESLVEKANKFWGI
modifications: allosteric peptide of colicin Ia
Question: With B2 as the molecule, how does the “possibility of causing host allergic reaction relative to anti-Staphylococcus aureus polypeptide” value [15] read?
Answer: lower one to two order of magnitude
